Results: a compilation of properties of binary mixtures (doi:10.1021/acs.jced.6b00596)

Assay: xn = mol fraction of the nth substance listed
Conditions: 100 kPa

Compound: CCCCCCCCCCCCCC[P+](CCCCCC)(CCCCCC)CCCCCC.O=[N+]([O-])c1c[n-]cn1 + COCCOCCOCCOCCOC
- viscosity (278.15 K, x2 = 0.404): 443 mPa·s
- viscosity (283.15 K, x2 = 0.404): 324 mPa·s
- viscosity (288.15 K, x2 = 0.189): 726 mPa·s
- viscosity (288.15 K, x2 = 0.404): 240 mPa·s
- viscosity (293.15 K, x2 = 0.189): 522 mPa·s
- viscosity (293.15 K, x2 = 0.404): 180 mPa·s
- viscosity (298.15 K, x2 = 0.189): 384 mPa·s
- viscosity (298.15 K, x2 = 0.404): 135 mPa·s
- viscosity (303.15 K, x2 = 0.189): 290 mPa·s
- viscosity (308.15 K, x2 = 0.189): 222 mPa·s
- viscosity (308.15 K, x2 = 0.404): 85 mPa·s
- viscosity (313.15 K, x2 = 0.189): 173 mPa·s
- viscosity (313.15 K, x2 = 0.404): 70 mPa·s
- viscosity (318.15 K, x2 = 0.189): 138 mPa·s
- viscosity (318.15 K, x2 = 0.404): 57 mPa·s
- viscosity (323.15 K, x2 = 0.189): 111 mPa·s

Compound: CCCCCCCC[P+](CC)(CC)CC.O=[N+]([O-])c1cn[n-]c1 + COCCOCCOCCOCCOC
- viscosity (278.15 K, x2 = 0): 1340 mPa·s
- viscosity (278.15 K, x2 = 0.051): 1010 mPa·s
- viscosity (278.15 K, x2 = 0.102): 693 mPa·s
- viscosity (278.15 K, x2 = 0.199): 395 mPa·s
- viscosity (278.15 K, x2 = 0.3): 229 mPa·s
- viscosity (278.15 K, x2 = 0.404): 129 mPa·s
- viscosity (283.15 K, x2 = 0.051): 666 mPa·s
- viscosity (283.15 K, x2 = 0.102): 471 mPa·s
- viscosity (283.15 K, x2 = 0.199): 277 mPa·s
- viscosity (283.15 K, x2 = 0.3): 166 mPa·s
- viscosity (283.15 K, x2 = 0.503): 60 mPa·s
- viscosity (288.15 K, x2 = 0.051): 452 mPa·s
- viscosity (288.15 K, x2 = 0.199): 199 mPa·s
- viscosity (288.15 K, x2 = 0.3): 123 mPa·s
- viscosity (288.15 K, x2 = 0.404): 74 mPa·s
- viscosity (293.15 K, x2 = 0): 398 mPa·s
- viscosity (293.15 K, x2 = 0.051): 317 mPa·s
- viscosity (293.15 K, x2 = 0.102): 234 mPa·s
- viscosity (293.15 K, x2 = 0.199): 147 mPa·s
- viscosity (293.15 K, x2 = 0.3): 94 mPa·s
- viscosity (293.15 K, x2 = 0.404): 59 mPa·s
- viscosity (298.15 K, x2 = 0): 282 mPa·s
- viscosity (298.15 K, x2 = 0.051): 229 mPa·s
- viscosity (298.15 K, x2 = 0.102): 172 mPa·s
- viscosity (298.15 K, x2 = 0.199): 112 mPa·s
- viscosity (298.15 K, x2 = 0.3): 73 mPa·s
- viscosity (303.15 K, x2 = 0): 207 mPa·s
- viscosity (303.15 K, x2 = 0.102): 130 mPa·s
- viscosity (303.15 K, x2 = 0.199): 87 mPa·s
- viscosity (303.15 K, x2 = 0.3): 58 mPa·s
- viscosity (308.15 K, x2 = 0): 155 mPa·s
- viscosity (308.15 K, x2 = 0.051): 130 mPa·s
- viscosity (308.15 K, x2 = 0.102): 101 mPa·s
- viscosity (313.15 K, x2 = 0): 119 mPa·s
- viscosity (313.15 K, x2 = 0.051): 101 mPa·s
- viscosity (313.15 K, x2 = 0.102): 80 mPa·s
- viscosity (318.15 K, x2 = 0.051): 80 mPa·s
- viscosity (318.15 K, x2 = 0.102): 64 mPa·s
- viscosity (323.15 K, x2 = 0): 75 mPa·s
- viscosity (323.15 K, x2 = 0.051): 65 mPa·s
- viscosity (323.15 K, x2 = 0.102): 52 mPa·s

Compound: CCCn1cc[n+](C)c1C.O=[N+]([O-])c1cn[n-]c1 + COCCOCCOCCOCCOC
- viscosity (278.15 K, x2 = 0.05): 5420 mPa·s
- viscosity (278.15 K, x2 = 0.1): 3220 mPa·s
- viscosity (278.15 K, x2 = 0.201): 1300 mPa·s
- viscosity (278.15 K, x2 = 0.302): 546 mPa·s
- viscosity (278.15 K, x2 = 0.499): 125 mPa·s
- viscosity (278.15 K, x2 = 0.6): 65 mPa·s
- viscosity (283.15 K, x2 = 0.05): 2660 mPa·s
- viscosity (283.15 K, x2 = 0.302): 338 mPa·s
- viscosity (283.15 K, x2 = 0.399): 167 mPa·s
- viscosity (288.15 K, x2 = 0.05): 1400 mPa·s
- viscosity (288.15 K, x2 = 0.302): 218 mPa·s
- viscosity (288.15 K, x2 = 0.399): 115 mPa·s
- viscosity (288.15 K, x2 = 0.499): 64 mPa·s
- viscosity (293.15 K, x2 = 0.05): 798 mPa·s
- viscosity (293.15 K, x2 = 0.1): 552 mPa·s
- viscosity (293.15 K, x2 = 0.201): 287 mPa·s
- viscosity (293.15 K, x2 = 0.302): 149 mPa·s
- viscosity (293.15 K, x2 = 0.399): 83 mPa·s
- viscosity (298.15 K, x2 = 0.05): 487 mPa·s
- viscosity (298.15 K, x2 = 0.1): 350 mPa·s
- viscosity (298.15 K, x2 = 0.201): 194 mPa·s
- viscosity (298.15 K, x2 = 0.302): 106 mPa·s
- viscosity (303.15 K, x2 = 0.05): 314 mPa·s
- viscosity (303.15 K, x2 = 0.1): 234 mPa·s
- viscosity (303.15 K, x2 = 0.201): 137 mPa·s
- viscosity (303.15 K, x2 = 0.302): 79 mPa·s
- viscosity (308.15 K, x2 = 0.05): 213 mPa·s
- viscosity (308.15 K, x2 = 0.1): 163 mPa·s
- viscosity (308.15 K, x2 = 0.201): 100 mPa·s
- viscosity (308.15 K, x2 = 0.302): 61 mPa·s
- viscosity (313.15 K, x2 = 0.05): 150 mPa·s
- viscosity (313.15 K, x2 = 0.1): 118 mPa·s
- viscosity (318.15 K, x2 = 0.05): 111 mPa·s
- viscosity (318.15 K, x2 = 0.1): 90 mPa·s
- viscosity (318.15 K, x2 = 0.201): 59 mPa·s
- viscosity (323.15 K, x2 = 0.05): 84 mPa·s
- viscosity (323.15 K, x2 = 0.1): 70 mPa·s

Compound: CCCCCCCCCCCC[P+](CCCC)(CCCC)CCCC.c1c[n-]nn1 + COCCOCCOCCOCCOC
- viscosity (278.15 K, x2 = 0.062): 1980 mPa·s
- viscosity (278.15 K, x2 = 0.123): 1230 mPa·s
- viscosity (278.15 K, x2 = 0.155): 907 mPa·s
- viscosity (278.15 K, x2 = 0.214): 671 mPa·s
- viscosity (278.15 K, x2 = 0.395): 226 mPa·s
- viscosity (278.15 K, x2 = 0.495): 131 mPa·s
- viscosity (283.15 K, x2 = 0.062): 1260 mPa·s
- viscosity (283.15 K, x2 = 0.123): 809 mPa·s
- viscosity (283.15 K, x2 = 0.155): 608 mPa·s
- viscosity (283.15 K, x2 = 0.214): 458 mPa·s
- viscosity (283.15 K, x2 = 0.305): 256 mPa·s
- viscosity (283.15 K, x2 = 0.395): 165 mPa·s
- viscosity (283.15 K, x2 = 0.495): 98 mPa·s
- viscosity (283.15 K, x2 = 0.596): 57 mPa·s
- viscosity (288.15 K, x2 = 0.062): 824 mPa·s
- viscosity (288.15 K, x2 = 0.155): 419 mPa·s
- viscosity (288.15 K, x2 = 0.214): 320 mPa·s
- viscosity (288.15 K, x2 = 0.305): 186 mPa·s
- viscosity (288.15 K, x2 = 0.495): 75 mPa·s
- viscosity (293.15 K, x2 = 0.062): 557 mPa·s
- viscosity (293.15 K, x2 = 0.155): 297 mPa·s
- viscosity (293.15 K, x2 = 0.214): 231 mPa·s
- viscosity (293.15 K, x2 = 0.305): 139 mPa·s
- viscosity (293.15 K, x2 = 0.395): 95 mPa·s
- viscosity (298.15 K, x2 = 0.062): 389 mPa·s
- viscosity (298.15 K, x2 = 0.123): 276 mPa·s
- viscosity (298.15 K, x2 = 0.155): 218 mPa·s
- viscosity (298.15 K, x2 = 0.214): 171 mPa·s
- viscosity (298.15 K, x2 = 0.395): 74 mPa·s
- viscosity (303.15 K, x2 = 0.062): 280 mPa·s
- viscosity (303.15 K, x2 = 0.123): 203 mPa·s
- viscosity (303.15 K, x2 = 0.155): 164 mPa·s
- viscosity (303.15 K, x2 = 0.214): 130 mPa·s
- viscosity (303.15 K, x2 = 0.305): 84 mPa·s
- viscosity (303.15 K, x2 = 0.395): 59 mPa·s

Compound: CCCCCC[n+]1ccn(C)c1.O=S(=O)([N-]S(=O)(=O)C(F)(F)F)C(F)(F)F + COCCOCCOCCOCCOC
- viscosity (278.15 K, x2 = 0): 204 mPa·s
- viscosity (283.15 K, x2 = 0): 151 mPa·s
- viscosity (288.15 K, x2 = 0): 115 mPa·s
- viscosity (293.15 K, x2 = 0): 89 mPa·s

Compound: CCCCCC[n+]1ccn(C)c1C.O=S(=O)([N-]S(=O)(=O)C(F)(F)F)C(F)(F)F + COCCOCCOCCOCCOC
- viscosity (278.15 K, x2 = 0): 485 mPa·s
- viscosity (278.15 K, x2 = 0.102): 370 mPa·s
- viscosity (278.15 K, x2 = 0.205): 251 mPa·s
- viscosity (278.15 K, x2 = 0.306): 161 mPa·s
- viscosity (278.15 K, x2 = 0.399): 109 mPa·s
- viscosity (278.15 K, x2 = 0.499): 70 mPa·s
- viscosity (278.15 K, x2 = 0.599): 48 mPa·s
- viscosity (283.15 K, x2 = 0): 335 mPa·s
- viscosity (283.15 K, x2 = 0.102): 258 mPa·s
- viscosity (283.15 K, x2 = 0.205): 177 mPa·s
- viscosity (283.15 K, x2 = 0.306): 116 mPa·s
- viscosity (283.15 K, x2 = 0.399): 81 mPa·s
- viscosity (283.15 K, x2 = 0.499): 53 mPa·s
- viscosity (288.15 K, x2 = 0): 236 mPa·s
- viscosity (288.15 K, x2 = 0.102): 184 mPa·s
- viscosity (288.15 K, x2 = 0.205): 129 mPa·s
- viscosity (288.15 K, x2 = 0.306): 86 mPa·s
- viscosity (288.15 K, x2 = 0.399): 61 mPa·s
- viscosity (293.15 K, x2 = 0): 172 mPa·s
- viscosity (293.15 K, x2 = 0.205): 96 mPa·s
- viscosity (298.15 K, x2 = 0.205): 74 mPa·s
- viscosity (303.15 K, x2 = 0): 99 mPa·s
- viscosity (303.15 K, x2 = 0.102): 80 mPa·s
- viscosity (303.15 K, x2 = 0.205): 58 mPa·s
- viscosity (308.15 K, x2 = 0): 78 mPa·s
- viscosity (313.15 K, x2 = 0): 63 mPa·s
- viscosity (313.15 K, x2 = 0.102): 52 mPa·s
